Here are results for two compounds from patent US7262170B2, “Pharmaceutical composition for reducing vaginal acidity and treatment of vaginitis, and the use thereof” (priority 1998, dated 2007).

One assay relates to fungal vaginitis. The following applies: anti-fungal drug alone; cited from earlier work.
The subject of another assay is Candida albicans. The assay can be described thus: Growth of Candida albicans in broths with or without Fluconazole, Gram-stained smears of cultured broths. The format is cell-based. The following applies: 48 hours incubation, Fluconazole 0.005% in experiment tubes. As to the method: Broths: Four sterilized broths were prepared separately according to following formula: • A. Sucrose 0.25%, yeast extract powder 0.15%, glutamic acid 0.4%, aspartic acid 0.4%, isoleucine 0.4%, proline 0.4%, phenylalanine 0.4%, Fluconazole, 0.005%, distilled water, pH adjusted to 6.5 • B. Sucrose 0.25%, yeast extract powder 0.15%, glutamic acid 0.08%, aspartic acid 0.08%, isoleucine 0.08%, proline 0.08%, phenylalanine 0.08%, Fluconazole, 0.005%, distilled water, pH adjusted to 6.5 • C. Control-A broth: Sucrose 0.25%, yeast extract powder 0.15%, glutamic acid 0.4%, aspartic acid 0.4%, isoleucine 0.4%, proline 0.4%, phenylalanine 0.4%, distilled water, pH adjusted to 6.5 • D. Control-B broth: Sucrose 0.25%, yeast extract powder 0.15%, glutamic acid 0.08%, aspartic acid 0.08%, isoleucine 0.08%, proline 0.08%, phenylalanine 0.08%, distilled water, pH adjusted to 6.5 Lactobacillus suspensions: Two lactobacillus suspensions were prepared separately from each of the clinical isolated L. acidophilus and L. crispatus strains. Candida suspension: One Candida suspension was prepared from a clinically isolated Candida albicans strain. Grouping: two groups of tubes were divided and each group had four tubes, two experimental tubes and two control tubes. Group A contained 3 ml of A-broth and Group B contained 3 ml of B-broth. […]

For Mikostatin, in the assay on fungal vaginitis, the curative rate was 75-80%.
For the compound `OC(Cn1cncn1)(Cn1cncn1)c1ccc(F)cc1F` [Fluconazole], in the assay on Candida albicans, the “growth of Candida albicans / yeast-like organisms in cultured broths” value was “inhibited”.
